Measurements taken from ChEMBL document CHEMBL5244255, “An insight on medicinal attributes of 1,2,4-triazoles” (Eur J Med Chem, 2020).
In brackets after ≈: the same amount, converted by molar mass.

Columns and labels:
[1] = tested on: Mycobacterium tuberculosis; test: Antimycobacterial activity against multi drug resistant Mycobacterium tuberculosis measured after 8 to 9 days; type: functional; conditions: time 8-9 day
[2] = tested on: Mycobacterium tuberculosis; test: Antimycobacterial activity against drug resistant Mycobacterium tuberculosis measured after 8 to 9 days; type: functional; conditions: time 8-9 day

Structure (SMILES)	MIC [1] [µg/mL]	MIC [2] [µg/mL]
O=[N+]([O-])c1ccc(C2=Nn3c(nnc3-c3ccnc(F)c3)CC2)cc1	0.25 (≈ 0.739 µM)	0.25 (≈ 0.739 µM)
O=[N+]([O-])c1ccc(C2=Nn3c(nnc3-c3ccc(Br)cc3)CC2)cc1	–	0.25 (≈ 0.628 µM)
Brc1ccc(OCc2nn3c(-c4ccc(Br)cc4)nnc3s2)cc1	4 (≈ 8.58 µM)	0.5 (≈ 1.07 µM)
O=[N+]([O-])c1ncn(CCCCNS(=O)(=O)c2scc(Cl)c2Cl)n1	0.25 (≈ 0.625 µM)	–
Clc1ccc(-c2nnc3sc(COc4ccc(Br)cc4)nn23)cc1	4 (≈ 9.49 µM)	0.5 (≈ 1.19 µM)
